# According to patent US20090197955A1, “METHODS OF IMPROVING DHA DEPOSITION AND RELATED FUNCTION AND/OR DEVELOPMENT” (Monsanto Company, priority 2008, published 2009):
# How the values were obtained:
# [1] = Heart phospholipid fatty acid composition of pigs fed SDA; format: in vivo; conditions: for Average heart DHA level, percent of total fatty acids / Average heart EPA level, percent of total fatty acids / Average heart SDA level, percent of total fatty acids: 35 days
# Description: (§1) After completion of the feeding phase, animals were slaughtered and tissues were collected for evaluation. A sample of brain was obtained by making a cup from the occipital condyle at the base of the skull to the back of the eye. A portion of the brain from the cerebral cortex, and some of the mid brain was collected. About 1 g of frozen heart or brain tissue was pulverized in a stainless steel mortar and pestle maintained at −70° C. It was then suspended in 2 mL of ice-cold saline and sonicated on ice to thoroughly disperse the tissue. The lipids were extracted with methylene chloride:methanol. The PL fractions were isolated by thin layer chromatography and methylated for 10 minutes in BF3-methanol at 100° C. After extraction of the fatty acid methyl esters (FAME) with hexane:water, their composition was analyzed in a GC2010 (Shimadzu Scientific Instruments, Columbia, Md.) using a fused silica capillary columns (SP-2560, 100 m length, 0.25 mm internal diameter, 0.25 um film thickness, Supelco, Bellefonte, Pa.). A weighed external standard fatty acid (FA) mixture (GLC727, NuCheck Prep, Elysian, Minn.) was included to correct for potential differences in FA response factors. The response factor for palmitic acid of is assumed to be 1.0. Results were expressed as a percent of total identified FA (for composition endpoints) and as mg FA/g tissue.
# [2] = prior studies; cited from earlier work
# [3] = Brain phospholipid fatty acid composition of pigs fed SDA; format: in vivo; conditions: for Brain phospholipid DHA, percent of total fatty acids / Brain phospholipid EPA, percent of total fatty acids / Brain phospholipid SDA, percent of total fatty acids: 35 days
# Description: as §1, with “In addition to measuring long-chain fatty acid incorporation into tissues, additional research was undertaken to understand the alterations in fatty acid concentration in the brain and heart tissues. In particular, DHA is known to be a significant fraction of brain composition. As such, the following experiments were conducted with brain matter extracted from the pigs used in the study above. After completion” for “After completion”
# [4] = cited from earlier work
smiles,measurement,setting,value
"CC/C=C\C/C=C\C/C=C\C/C=C\CCCCC(=O)O [SDA, stearidonic acid]","Average heart DHA level, percent of total fatty acids",[1]; SDA 0.2%,0.49%
same,"Average heart EPA level, percent of total fatty acids",[1]; SDA 0.2%,1.82%
same,"Average heart SDA level, percent of total fatty acids",[1]; SDA 0.2%,0.05%
same,"Average heart DHA level, percent of total fatty acids",[1]; SDA 0.4%,0.42%
same,"Average heart EPA level, percent of total fatty acids",[1]; SDA 0.4%,3.86%
same,"Average heart SDA level, percent of total fatty acids",[1]; SDA 0.4%,0.13%
same,"Average heart DHA level, percent of total fatty acids",[1]; SDA 0.6%,0.57%
same,"Average heart EPA level, percent of total fatty acids",[1]; SDA 0.6%,4.83%
same,"Average heart SDA level, percent of total fatty acids",[1]; SDA 0.6%,0.19%
same,"Average heart DHA level, percent of total fatty acids",[1]; SDA 0.8%,0.62%
same,"Average heart EPA level, percent of total fatty acids",[1]; SDA 0.8%,6.71%
same,"Average heart SDA level, percent of total fatty acids",[1]; SDA 0.8%,0.36%
same,"Dose response for deposition of SDA, EPA and DHA in heart phospholipids",[1]; regression analysis on the mean response at each dose level,statistically significant (p<0.05)
same,DHA concentrations in blood or tissues after feeding SDA,[2],failed to find evidence of increased DHA concentrations
same,"Brain phospholipid DHA, percent of total fatty acids",[3]; SDA 0.2%,10.07%
same,"Brain phospholipid EPA, percent of total fatty acids",[3]; SDA 0.2%,0.02%
same,"Brain phospholipid SDA, percent of total fatty acids",[3]; SDA 0.2%,0.01%
same,"Brain phospholipid DHA, percent of total fatty acids",[3]; SDA 0.4%,9.15%
same,"Brain phospholipid EPA, percent of total fatty acids",[3]; SDA 0.4%,0.04%
same,"Brain phospholipid SDA, percent of total fatty acids",[3]; SDA 0.4%,0.01%
same,"Brain phospholipid DHA, percent of total fatty acids",[3]; SDA 0.6%,10.99%
same,"Brain phospholipid EPA, percent of total fatty acids",[3]; SDA 0.6%,0.06%
same,"Brain phospholipid SDA, percent of total fatty acids",[3]; SDA 0.6%,0.01%
same,"Brain phospholipid DHA, percent of total fatty acids",[3]; SDA 0.8%,11.21%
same,"Brain phospholipid EPA, percent of total fatty acids",[3]; SDA 0.8%,0.06%
same,"Brain phospholipid SDA, percent of total fatty acids",[3]; SDA 0.8%,0.01%
same,Deposition of EPA and DHA in the brain,[3]; SDA feeding,dose response deposition of EPA and DHA in the brain
same,Amount of SDA relative to EPA needed to enrich blood tissues with an equivalent amount of EPA,[4],3 times
